Data reported in US20100247707A1, “DIPEPTIDES AS FEED ADDITIVES” (EVONIK DEGUSSA GmbH, priority 2009, published 2010).

How the values were obtained:
[1] = tested on: digestive enzymes from rainbow trout; test: In vitro digestion of non-natural dipeptides LD-I / DL-II with digestive enzymes from rainbow trout; assay type: in vitro ADME, Oncorhynchus mykiss; conditions: for portion of dipeptide cleaved: after 5 hours, in vitro reaction conditions; for speed of cleavage / digestion: non-natural dipeptides
Method: (§1) For this, the enzymes were isolated from the digestive tracts of the fishes and shrimps. The chemically synthesized dipeptides L-EAA-D-Met (LD-I) and D-Met-L-EAA (DL-II) were then reacted with the enzyme solutions obtained. For better comparability of the digestibilities of dipeptides of various species, identical conditions were selected for the in vitro digestion studies (37° C., pH 9). All non-natural dipeptides L-EAA-D-Met (LD-I) and D-Met-L-EAA (DL-II) are cleaved by digestive enzymes of the omnivorous mirror carp (see FIG. 7), of the herbivorous grass carp (see FIG. 8), of the carnivorous rainbow trout (see FIG. 11), of the omnivorous whiteleg shrimp (see FIG. 10) and of the chicken (see FIG. 17). The cleavages of D-Met-L-EAA (DL-II) proceed somewhat more slowly than the cleavages of the analogous L-EAA-D-Met (LD-I) dipeptides. With digestive enzymes of the Tilapia (see FIG. 9), in contrast, D-Met-L-EAA (DL-II) could be cleaved more quickly than L-EAA-D-Met (LD-I) dipeptides. […] After just 5 hours, under in vitro reaction conditions the bulk of the lysine-containing dipeptides had been cleaved by all of the digestive enzymes used.
a) Isolation of the Digestive Enzymes from Rainbow Trout (Oncorhynchus mykiss)
The digestive enzymes were isolated according to the method of EID and MATTY (Aquaculture 1989, 79, 111-119). For this, the intestines were removed from six one-year-old rainbow trout (Oncorhynchus mykiss) and processed as described in Example 18.
(§2) b) Procedure for the In Vitro Digestion Studies
The in vitro investigations were carried out similarly to Example 19 (see Table 6, FIG. 11).

[2] = tested on: digestive enzymes from chicken; test: In vitro digestion of non-natural dipeptides LD-I / DL-II with digestive enzymes from chicken; assay type: in vitro ADME; conditions: for portion of dipeptide cleaved: after 5 hours, in vitro reaction conditions; for speed of cleavage / digestion: non-natural dipeptides
Method: as §1
a) Isolation of the Digestive Enzymes from Chicken
The digestive enzymes were isolated according to the method of EID and MATTY (Aquaculture 1989, 79, 111-119). For this, the intestines were removed from a chicken and processed as described in Example 24.
as §2
D-Met-L-EAA (DL-II) or L-EAA-D-Met (LD-I) was taken up in TRIS/HCl buffer solution and the enzyme solution was added. As comparison and to assess the rate of purely chemical cleavage, a blank without enzyme solution was prepared in each case. A sample was taken from time to time and its composition was detected and quantified by means of a calibrated HPLC. The conversion was determined as the quotient of the area of methionine and the area of D-Met-L-EAA (DL-II) or L-EAA-D-Met (LD-I) (see Table 10, FIG. 17).

[3] = tested on: digestive enzymes of the herbivorous grass carp; test: In vitro digestion of non-natural dipeptides LD-I / DL-II with digestive enzymes from grass carp; assay type: in vitro ADME; conditions: for portion of dipeptide cleaved: after 5 hours, in vitro reaction conditions; for speed of cleavage / digestion: non-natural dipeptides
Method: as §1

[4] = tested on: digestive enzymes from whiteleg shrimps; test: In vitro digestion of non-natural dipeptides LD-I / DL-II with digestive enzymes from whiteleg shrimps; assay type: in vitro ADME, Litopenaeus vannamei; conditions: whiteleg shrimp enzymes; for portion of dipeptide cleaved: after 5 hours, in vitro reaction conditions; for speed of cleavage / digestion: non-natural dipeptides
Method: as §1
a) Isolation of the Digestive Enzymes from Whiteleg Shrimps (Litopenaeus vannamei)
The digestive enzymes were isolated according to the method of Ezquerra and Garcia-Carreno (J. Food Biochem. 1999, 23, 59-74). For this, the hepatopancreas was removed from five kilograms of whiteleg shrimps (Litopenaeus vannamei) and comminuted in a mixer together with crushed ice. Further processing was carried out similarly to Example 18.
as §2
The in vitro investigations were carried out similarly to Example 19 (see Table 8, FIG. 10).

[5] = tested on: digestive enzymes of the Tilapia; test: In vitro digestion of non-natural dipeptides LD-I / DL-II with digestive enzymes from Tilapia; assay type: in vitro ADME; conditions: for portion of dipeptide cleaved: after 5 hours, in vitro reaction conditions; for speed of cleavage / digestion: non-natural dipeptides
Method: as §1

[6] = tested on: digestive enzymes from mirror carp; test: In vitro digestion of non-natural dipeptides LD-I / DL-II with digestive enzymes from mirror carp; assay type: in vitro ADME, Cyprinus carpio morpha noblis; conditions: for portion of dipeptide cleaved: after 5 hours, in vitro reaction conditions; for speed of cleavage / digestion: non-natural dipeptides
Method: as §1
a) Isolation of the Digestive Enzymes from Mirror Carp (Cyprinus carpio morpha noblis)
The digestive enzymes were isolated according to the method of EID and MATTY (Aquaculture 1989, 79, 111-119). For this, the intestines were removed from five one-year-old mirror carp (Cyprinus carpio morpha noblis) and processed as described in Example 18.
as §2
D-Met-L-EAA (DL-II) or L-EAA-D-Met (LD-I) was taken up in TRIS/HCl buffer solution and the enzyme solution was added. As comparison and to assess the rate of purely chemical cleavage, a blank without enzyme solution was prepared in each case (see Table 4). A sample was taken from time to time and its composition was detected and quantified by means of a calibrated HPLC. The conversion was determined as the quotient of the area of methionine and the area of D-Met-L-EAA (DL-II) or L-EAA-D-Met (LD-I) (see FIG. 7).

Litopenaeus vannamei = conditions: omnivorous shrimps Litopenaeus vannamei, Forster and Dominy 2006; cited from earlier work
ruminants = conditions: in ruminants, WO00/28835; cited from earlier work

| Compound | portion of dipeptide cleaved [1] | speed of cleavage / digestion [1] | portion of dipeptide cleaved [2] | speed of cleavage / digestion [2] | portion of dipeptide cleaved [3] | speed of cleavage / digestion [3] | portion of dipeptide cleaved [4] | speed of cleavage / digestion [4] | portion of dipeptide cleaved [5] | speed of cleavage / digestion [5] | portion of dipeptide cleaved [6] | speed of cleavage / digestion [6] | effectiveness in feeding tests (Litopenaeus vannamei) | bioavailability (ruminants) |
| --- | --- | --- | --- | --- | --- | --- | --- | --- | --- | --- | --- | --- | --- | --- |
| L-Lys-D-Met×2HCl [LD-Ie] | bulk | particularly quickly | bulk | particularly quickly | bulk | particularly quickly | bulk | particularly quickly | bulk | particularly quickly | bulk | particularly quickly |  |  |
| CSCCC(N)C(=O)O (racemic) [DL-methionine] |  |  |  |  |  |  |  |  |  |  |  |  | equally as effective as L-methionine |  |
| CSCCC(O)C(=O)OC(C)C (racemic) [HMBi, racemic iso-propyl ester of MHA] |  |  |  |  |  |  |  |  |  |  |  |  |  | at least 50% |
| CSCC[C@@H](N)C(=O)N[C@@H](CCCCN)C(=O)O.Cl.Cl (racemic) [DL-IIe, D-Met-L-Lys×2HCl] | bulk | particularly quickly | bulk | particularly quickly | bulk | particularly quickly | bulk | particularly quickly | bulk | particularly quickly | bulk | particularly quickly |  |  |
